Where “and” joins values, the source holds several entries; their conditions need not be identical. Equal values may be shown once. Read-outs that look alike come from different tables or passages of the source.
Tests used:
[1] = Metabolic stability in pooled human liver microsomes; type: in vitro ADME; settings: pooled human liver microsomes 0.5 mg/mL, 1 μM test compound, 37° C., * rows = mean of two runs; for half-life at 1 μM: human, pooled human liver microsomes
Experimental: Pooled human liver microsomes in PBS at a concentration of 0.5 mg/mL was incubated with or without 1 mM NADPH for 70 min at 37° C. Test compound was added after 10 minutes to a final concentration of 1 μM. Samples were withdrawn at 0, 5, 15 and 60 minutes and added to test tubes containing acetonitrile, to stop the reaction, and with terfenadine, used as internal standard. After centrifugation at 10 000×g for 5 minutes the supernatant was diluted 1:1 with 1% formic acid. Samples were separated on a reverse phase column and detected by triple quadrupole MSMS (Agilant model 6540). The concentration of the parent compound at the different time points was measured with an external standard curve using terfenadine as internal standard and the initial metabolic rate in the presence or absence of NADPH calculated.

[2] = target: T1, human recombinant AT2 receptor (Homo sapiens, UniProt P50052); test: Binding to AT2 receptor, radiometric scintillation assay (Eurofins ITEM26); settings: for Ki: seven-point dose-response curve
T1 construct: purchased Eurofins ITEM26 (protocol number)
T1 sequence (P50052 1-363): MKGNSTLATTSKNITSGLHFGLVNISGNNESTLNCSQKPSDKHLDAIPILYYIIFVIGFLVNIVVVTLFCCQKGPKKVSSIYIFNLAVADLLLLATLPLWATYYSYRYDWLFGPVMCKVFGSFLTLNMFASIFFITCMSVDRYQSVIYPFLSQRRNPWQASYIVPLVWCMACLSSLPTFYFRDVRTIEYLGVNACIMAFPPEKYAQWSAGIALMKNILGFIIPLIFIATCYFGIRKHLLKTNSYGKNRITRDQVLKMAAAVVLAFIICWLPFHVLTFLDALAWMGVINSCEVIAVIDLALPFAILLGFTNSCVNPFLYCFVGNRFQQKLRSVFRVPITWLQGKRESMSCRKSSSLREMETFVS

[3] = with 1 mM NADPH, read-out: T1/2, + NaDPH
[4] = without NADPH, read-out: T1/2, no NaDPH
[5] = ligand 125I CGP 42112A, * rows = mean of runs
[6] = test compounds at 1, 10, 100 and 1000 nM, ligand 125I CGP 42112A, * rows = mean of runs, read-out: AT2 GraFit IC50

Row | half-life at 1 μM [1, 3] [h] | half-life at 1 μM [1, 4] [h] | T1/2, + NaDPH ([1]; with 1 mM NADPH) [h] | T1/2, + NaDPH ([1]; with 1 mM NADPH, listed as Example 31*) [h] | Ki [2, 5] | IC50 [2, 6] | IC50 ([2]; AT2 GraFit IC50, value in parentheses after <0.3, value printed in parentheses behind the bound <0.3) [nM] | T1/2, + NaDPH ([1]; with 1 mM NADPH, listed as Example 33*) [h] | T1/2, + NaDPH ([1]; with 1 mM NADPH, listed as Example 34*) [h] | SMILES
1 | 0.783 | > 1 | 0.583 | 0.683 | 1.21 nM and 1.84 nM and 1.53 nM | 2.43 nM and 3.68 nM and 3.06 nM |  |  |  | COc1cnc(NS(=O)(=O)c2ccc(CC(C)C)cc2-c2ccc(Cn3ccnc3C(C)(C)C)c(F)c2)nc1 [Example 31, 4′-((2-(tert-Butyl)-1H-imidazol-1-yl)methyl)-3′-fluoro-5-isobutyl-N-(5-methoxy-pyrimidin-2-yl)-[1,1′-biphenyl]-2-sulfonamide]
2 | > 1 | > 1 |  |  |  |  |  |  |  | CC(C)Cc1ccc(S(=O)(=O)Nc2ncccn2)c(-c2ccc(Cn3ccnc3C(C)(C)O)cc2)c1 [Example 15, 4′-((2-(2-Hydroxypropan-2-yl)-1H-imidazol-1-yl)methyl)-5-isobutyl-N-(pyrimidin-2-yl)-[1,1′-biphenyl]-2-sulfonamide]
3 |  |  |  |  |  | < 0.3 nM | 0.25 |  |  | Cc1nccn1Cc1ccc(-c2cc(CC(C)C)ccc2S(=O)(=O)Nc2ncccn2)cc1F [Example 53, Potassium ((3′-fluoro-5-isobutyl-4′-((2-methyl-1H-imidazol-1-yl)methyl)-[1,1′-biphenyl]-2-yl)sulfonyl)(pyrimidin-2-yl)amide]
4 | > 1 | > 1 |  |  | 0.3 nM | 0.6 nM |  |  |  | CC(C)Cc1cc(-c2ccc(Cn3ccnc3C(C)(C)C)c(F)c2)c(S(=O)(=O)Nc2ncccn2)s1 [Example 43, 3-(4-((2-(tert-Butyl)-1H-imidazol-1-yl)methyl)-3-fluorophenyl)-5-isobutyl-N-(pyrimidin-2-yl)thiophene-2-sulfonamide]
5 | > 1 | > 1 |  |  |  |  |  |  |  | CC(C)Cc1ccc(S(=O)(=O)Nc2ncccn2)c(-c2ccc(Cn3ccnc3C3CC3)cc2)c1 [Example 41, 4′-((2-Cyclopropyl-1H-imidazol-1-yl)methyl)-5-isobutyl-N-(pyrimidin-2-yl)-[1,1′-biphenyl]-2-sulfonamide]
6 | > 1 | > 1 |  |  |  |  |  |  |  | CC(C)Cc1cc(-c2ccc(Cn3ccnc3C(C)(C)C)cc2)c(S(=O)(=O)Nc2ncccn2)s1 [Example 16, 3-(4-((2-(tert-Butyl)-1H-imidazol-1-yl)methyl)phenyl)-5-isobutyl-N-(pyrimidin-2-yl)thiophene-2-sulfonamide]
7 | 0.75 | > 1 |  |  |  |  |  |  |  | CCc1nccn1Cc1ccc(-c2cc(CC(C)C)ccc2S(=O)(=O)Nc2ncccn2)cc1 [Example 40, 4′-((2-Ethyl-1H-imidazol-1-yl)methyl)-5-isobutyl-N-(pyrimidin-2-yl)-[1,1′-biphenyl]-2-sulfonamide]
8 | 0.2 | > 1 | 0.217 |  | 1.13 nM and 7.18 nM and 4.16 nM | 2.25 nM and 14.4 nM and 8.33 nM |  | 0.208 |  | CC(C)Cc1ccc(S(=O)(=O)Nc2ccsn2)c(-c2ccc(Cn3ccnc3C(C)(C)C)cc2)c1 [Example 33, 4′-((2-(tert-Butyl)-1H-imidazol-1-yl)methyl)-5-isobutyl-N-(isothiazol-3-yl)-[1,1′-biphenyl]-2-sulfonamide]
9 | > 1 | > 1 |  |  | 0.33 nM | 0.65 nM |  |  |  | CC(C)Cc1cc(-c2ccc(Cn3ccnc3C(C)C)c(F)c2)c(S(=O)(=O)Nc2ncccn2)s1 [Example 46, 3-(3-Fluoro-4-((2-isopropyl-1H-imidazol-1-yl)methyl)phenyl)-5-isobutyl-N-(pyrimidin-2-yl)thiophene-2-sulfonamide]
10 | 0.967 | > 1 |  |  | 1.38 nM | 2.76 nM |  |  |  | CC(C)Cc1ccc(S(=O)(=O)Nc2ncccn2)c(-c2ccc(Cn3ccnc3)cc2)c1 [Example 38, 4′-((1H-Imidazol-1-yl)methyl)-5-isobutyl-N-(pyrimidin-2-yl)-[1,1′-biphenyl]-2-sulfonamide]
11 | > 1 | > 1 |  |  |  |  |  |  |  | CC(C)Cc1ccc(S(=O)(=O)Nc2ncccn2)c(-c2ccc(Cn3ccnc3C(C)(C)C)cc2)c1 [Example 17, 4′-((2-(tert-Butyl)-1H-imidazol-1-yl)methyl)-5-isobutyl-N-(pyrimidin-2-yl)-[1,1′-biphenyl]-2-sulfonamide]
12 | > 1 | > 1 |  |  | 0.58 nM | 1.16 nM |  |  |  | Cc1nccn1Cc1ccc(-c2cc(CC(C)C)ccc2S(=O)(=O)Nc2ncccn2)cc1 [Example 37, 5-Isobutyl-4′-((2-methyl-1H-imidazol-1-yl)methyl)-N-(pyrimidin-2-yl)-[1,1′-biphenyl]-2-sulfonamide]
13 | 0.7 | > 1 |  |  | 5.99 nM | 12 nM |  |  |  | COc1cnc(NS(=O)(=O)c2ccc(CC(C)C)cc2-c2ccc(Cn3ccnc3C(C)(C)C)cc2)nc1 [Example 36, 4′-((2-(tert-Butyl)-1H-imidazol-1-yl)methyl)-5-isobutyl-N-(5-methoxypyrimidin-2-yl)-[1,1′-biphenyl]-2-sulfonamide]
14 | 0.283 | > 1 | 0.183 |  | 38.3 nM and 24.5 nM and 31.4 nM | 76.6 nM and 49 nM and 62.8 nM |  |  | 0.233 | COc1cc(NS(=O)(=O)c2ccc(CC(C)C)cc2-c2ccc(Cn3ccnc3C(C)(C)C)cc2)nc(OC)n1 [Example 34, 4′-((2-(tert-Butyl)-1H-imidazol-1-yl)methyl)-N-(2,6-dimethoxypyrimidin-4-yl)-5-isobutyl-[1,1′-biphenyl]-2-sulfonamide]
15 | 0.95 | > 1 |  |  |  |  |  |  |  | CC(C)Cc1ccc(S(=O)(=O)Nc2ncccn2)c(-c2ccc(Cn3ccnc3C(C)C)cc2)c1 [Example 39, 5-Isobutyl-4′-((2-isopropyl-1H-imidazol-1-yl)methyl)-N-(pyrimidin-2-yl)-[1,1′-biphenyl]-2-sulfonamide]
16 | > 1 | > 1 |  |  |  |  |  |  |  | CC(C)Cc1cc(-c2ccc(Cn3ccnc3)c(F)c2)c(S(=O)(=O)Nc2ncccn2)s1 [Example 48, 3-(4-((1H-Imidazol-1-yl)methyl)-3-fluorophenyl)-5-isobutyl-N-(pyrimidin-2-yl)thiophene-2-sulfonamide]
17 | > 1 | > 1 |  |  | 0.77 nM | 1.53 nM |  |  |  | CC(C)Cc1cc(-c2ccc(Cn3ccnc3C3CC3)cc2)c(S(=O)(=O)Nc2ncccn2)s1 [Example 52, 3-(4-((2-Cyclopropyl-1H-imidazol-1-yl)methyl)phenyl)-5-isobutyl-N-(pyrimidin-2-yl)thiophene-2-sulfonamide]
18 | > 1 | > 1 |  |  |  |  |  |  |  | CC(C)Cc1ccc(S(=O)(=O)Nc2ncccn2)c(-c2ccc(Cn3ccnc3C3CC3)c(F)c2)c1 [Example 42, 4′-((2-Cyclopropyl-1H-imidazol-1-yl)methyl)-3′-fluoro-5-isobutyl-N-(pyrimidin-2-yl)-[1,1′-biphenyl]-2-sulfonamide]
